Laboratory results taken from ChEMBL document CHEMBL1148857, “In vitro and in vivo profile of 5-[(4'-trifluoromethyl-biphenyl-2-carbonyl)-amino]-1H-indole-2-carboxylic acid benzylmethyl carbamoylamide (dirlotapide), a novel potent MTP inhibitor for obesity” (Bioorg Med Chem Lett, 2007).
The source made the active and inactive calls. The calls are words filed in the database; no cut-off is given here.

Experiments:
[1] = species on record: Homo sapiens; experiment: Inhibition of GABA receptor at 1 uM
[2] = species on record: Homo sapiens; experiment: Inhibition of kainate receptor at 1 uM
[3] = biological target: Histamine H1 receptor (Homo sapiens) (UniProt P35367); experiment: Inhibition of histamine H1 receptor at 1 uM
Chain of Histamine H1 receptor (Homo sapiens) (P35367 whole entry): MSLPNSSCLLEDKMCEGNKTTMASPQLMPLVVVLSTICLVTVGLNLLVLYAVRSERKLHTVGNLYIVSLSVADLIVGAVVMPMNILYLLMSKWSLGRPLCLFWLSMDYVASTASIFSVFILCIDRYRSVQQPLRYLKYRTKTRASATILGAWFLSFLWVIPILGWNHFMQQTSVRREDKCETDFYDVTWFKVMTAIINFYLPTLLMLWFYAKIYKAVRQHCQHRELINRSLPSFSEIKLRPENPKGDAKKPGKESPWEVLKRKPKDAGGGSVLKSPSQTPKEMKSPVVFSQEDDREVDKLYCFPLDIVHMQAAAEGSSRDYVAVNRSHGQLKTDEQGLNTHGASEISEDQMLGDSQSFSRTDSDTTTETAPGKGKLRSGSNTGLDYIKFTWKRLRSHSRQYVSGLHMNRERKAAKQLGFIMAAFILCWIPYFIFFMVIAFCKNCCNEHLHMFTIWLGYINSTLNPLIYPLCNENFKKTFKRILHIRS

[4] = biological target: Histamine H3 receptor (Homo sapiens) (UniProt Q9Y5N1); experiment: Inhibition of histamine H3 receptor at 1 uM
Chain of Histamine H3 receptor (Homo sapiens) (Q9Y5N1 whole entry): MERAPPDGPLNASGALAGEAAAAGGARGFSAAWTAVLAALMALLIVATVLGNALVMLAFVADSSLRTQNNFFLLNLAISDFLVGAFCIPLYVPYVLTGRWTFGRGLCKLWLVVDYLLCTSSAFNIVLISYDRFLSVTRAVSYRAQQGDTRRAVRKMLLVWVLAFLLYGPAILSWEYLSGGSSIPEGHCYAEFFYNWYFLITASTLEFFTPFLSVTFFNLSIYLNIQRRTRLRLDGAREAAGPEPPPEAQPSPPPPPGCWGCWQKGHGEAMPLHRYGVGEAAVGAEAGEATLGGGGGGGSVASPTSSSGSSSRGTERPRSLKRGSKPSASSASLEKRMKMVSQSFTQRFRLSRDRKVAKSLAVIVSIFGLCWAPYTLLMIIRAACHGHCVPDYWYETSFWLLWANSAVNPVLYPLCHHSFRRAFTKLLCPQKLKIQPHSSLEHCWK

[5] = species on record: Homo sapiens; experiment: Inhibition of NMDA receptor at 1 uM
[6] = biological target: Adenosine receptor A2a (Homo sapiens) (UniProt P29274); experiment: Inhibition of adenosine A2a receptor at 1 uM
[7] = biological target: D(2) dopamine receptor (Homo sapiens) (UniProt P14416); experiment: Inhibition of dopamine D2 receptor at 1 uM
Chain of D(2) dopamine receptor (Homo sapiens) (P14416 whole entry): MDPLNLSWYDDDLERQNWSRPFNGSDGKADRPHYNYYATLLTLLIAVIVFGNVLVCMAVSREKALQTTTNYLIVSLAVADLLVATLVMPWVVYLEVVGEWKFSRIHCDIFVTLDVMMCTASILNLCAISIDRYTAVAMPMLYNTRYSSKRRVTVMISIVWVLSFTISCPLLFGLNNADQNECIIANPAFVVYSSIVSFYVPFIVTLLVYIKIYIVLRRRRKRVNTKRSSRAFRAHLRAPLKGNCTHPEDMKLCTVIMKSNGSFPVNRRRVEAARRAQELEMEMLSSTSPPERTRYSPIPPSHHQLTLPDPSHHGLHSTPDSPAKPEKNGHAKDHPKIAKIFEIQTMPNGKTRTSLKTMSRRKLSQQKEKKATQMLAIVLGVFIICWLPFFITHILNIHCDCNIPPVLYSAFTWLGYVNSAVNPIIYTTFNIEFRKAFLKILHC

[8] = species on record: Homo sapiens; experiment: Inhibition of AMPA receptor at 1 uM
[9] = biological target: 5-hydroxytryptamine receptor 1A (Homo sapiens) (UniProt P08908); experiment: Inhibition of 5HT1A receptor at 1 uM
Chain of 5-hydroxytryptamine receptor 1A (Homo sapiens) (P08908 whole entry): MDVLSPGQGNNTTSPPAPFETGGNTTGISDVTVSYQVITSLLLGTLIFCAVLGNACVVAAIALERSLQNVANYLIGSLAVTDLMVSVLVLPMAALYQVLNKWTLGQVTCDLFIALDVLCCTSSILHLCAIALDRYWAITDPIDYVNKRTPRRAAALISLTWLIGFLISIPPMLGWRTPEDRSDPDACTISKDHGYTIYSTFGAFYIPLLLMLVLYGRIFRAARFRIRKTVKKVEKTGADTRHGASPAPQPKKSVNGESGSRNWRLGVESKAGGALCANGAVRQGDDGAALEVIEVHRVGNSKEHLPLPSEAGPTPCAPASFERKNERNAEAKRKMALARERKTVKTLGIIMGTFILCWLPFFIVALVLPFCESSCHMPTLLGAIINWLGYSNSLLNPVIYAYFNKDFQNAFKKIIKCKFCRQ

[10] = biological target: Serotonin 3 (5-HT3) receptor (Homo sapiens) (UniProt P46098+A5X5Y0+O95264+Q70Z44+Q8WXA8); experiment: Inhibition of 5HT3 receptor at 1 uM; format: protein-complex assay
[11] = biological target: 5-hydroxytryptamine receptor 4 (Homo sapiens) (UniProt Q13639); experiment: Inhibition of 5HT4 receptor at 1 uM
Chain of 5-hydroxytryptamine receptor 4 (Homo sapiens) (Q13639 whole entry): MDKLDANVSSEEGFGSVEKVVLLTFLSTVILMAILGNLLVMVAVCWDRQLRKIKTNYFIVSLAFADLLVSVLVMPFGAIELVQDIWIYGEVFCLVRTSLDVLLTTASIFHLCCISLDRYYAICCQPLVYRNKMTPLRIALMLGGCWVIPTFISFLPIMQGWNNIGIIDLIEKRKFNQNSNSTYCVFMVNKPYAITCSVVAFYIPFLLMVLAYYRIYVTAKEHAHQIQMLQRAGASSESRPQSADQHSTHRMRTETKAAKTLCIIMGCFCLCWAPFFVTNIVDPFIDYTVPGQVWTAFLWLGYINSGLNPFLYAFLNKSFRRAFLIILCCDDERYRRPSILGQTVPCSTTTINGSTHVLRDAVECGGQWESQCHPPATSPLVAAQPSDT

[12] = biological target: 5-hydroxytryptamine receptor 7 (Homo sapiens) (UniProt P34969); experiment: Inhibition of 5HT7 receptor at 1 uM
Chain of 5-hydroxytryptamine receptor 7 (Homo sapiens) (P34969 whole entry): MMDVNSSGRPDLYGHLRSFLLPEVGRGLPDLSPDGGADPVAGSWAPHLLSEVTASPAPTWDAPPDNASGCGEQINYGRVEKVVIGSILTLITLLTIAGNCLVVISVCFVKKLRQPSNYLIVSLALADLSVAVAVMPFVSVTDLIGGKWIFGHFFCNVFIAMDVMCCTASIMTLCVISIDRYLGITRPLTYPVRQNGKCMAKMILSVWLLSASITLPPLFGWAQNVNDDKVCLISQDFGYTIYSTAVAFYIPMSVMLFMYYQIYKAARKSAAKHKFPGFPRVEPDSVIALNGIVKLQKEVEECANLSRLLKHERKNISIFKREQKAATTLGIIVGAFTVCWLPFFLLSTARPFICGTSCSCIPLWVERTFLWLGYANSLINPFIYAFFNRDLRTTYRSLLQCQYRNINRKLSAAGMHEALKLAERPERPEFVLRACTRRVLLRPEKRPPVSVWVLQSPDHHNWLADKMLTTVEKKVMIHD

[13] = biological target: Melanocortin receptor 4 (Homo sapiens) (UniProt P32245); experiment: Inhibition of melanocortin MC4 receptor at 1 uM
[14] = biological target: Muscarinic acetylcholine receptor M1 (Homo sapiens) (UniProt P11229); experiment: Inhibition of muscarinic M1 receptor at 1 uM
Chain of Muscarinic acetylcholine receptor M1 (Homo sapiens) (P11229 whole entry): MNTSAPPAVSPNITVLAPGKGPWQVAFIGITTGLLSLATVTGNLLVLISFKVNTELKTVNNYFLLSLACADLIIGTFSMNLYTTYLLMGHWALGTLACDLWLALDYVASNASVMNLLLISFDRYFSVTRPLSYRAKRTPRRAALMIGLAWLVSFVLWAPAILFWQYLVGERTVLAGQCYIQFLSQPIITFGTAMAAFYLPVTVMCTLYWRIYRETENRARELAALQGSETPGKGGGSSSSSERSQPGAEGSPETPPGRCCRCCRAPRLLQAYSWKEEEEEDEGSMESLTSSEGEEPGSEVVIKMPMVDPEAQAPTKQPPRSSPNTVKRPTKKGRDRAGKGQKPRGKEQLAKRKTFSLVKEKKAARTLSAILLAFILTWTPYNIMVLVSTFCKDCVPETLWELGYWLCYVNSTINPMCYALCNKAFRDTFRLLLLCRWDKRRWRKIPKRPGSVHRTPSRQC

[15] = biological target: Muscarinic acetylcholine receptor M2 (Homo sapiens) (UniProt P08172); experiment: Inhibition of muscarinic M2 receptor at 1 uM
Chain of Muscarinic acetylcholine receptor M2 (Homo sapiens) (P08172 whole entry): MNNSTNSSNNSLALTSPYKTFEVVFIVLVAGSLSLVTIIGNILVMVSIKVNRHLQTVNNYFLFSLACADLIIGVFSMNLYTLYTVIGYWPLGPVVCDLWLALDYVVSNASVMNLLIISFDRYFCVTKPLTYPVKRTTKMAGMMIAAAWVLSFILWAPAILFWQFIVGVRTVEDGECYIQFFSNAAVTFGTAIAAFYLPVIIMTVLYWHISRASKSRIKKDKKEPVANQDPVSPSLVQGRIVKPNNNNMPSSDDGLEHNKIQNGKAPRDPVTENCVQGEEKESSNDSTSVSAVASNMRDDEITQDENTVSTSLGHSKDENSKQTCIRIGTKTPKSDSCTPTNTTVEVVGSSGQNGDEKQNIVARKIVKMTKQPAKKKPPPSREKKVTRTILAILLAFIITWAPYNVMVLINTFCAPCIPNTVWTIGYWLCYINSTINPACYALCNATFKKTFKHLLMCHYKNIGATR

[16] = species on record: Homo sapiens; experiment: Inhibition of neuronal nicotinic receptor at 1 uM
[17] = biological target: Kappa-type opioid receptor (Homo sapiens) (UniProt P41145); experiment: Inhibition of kappa opioid receptor at 1 uM
Chain of Kappa-type opioid receptor (Homo sapiens) (P41145 whole entry): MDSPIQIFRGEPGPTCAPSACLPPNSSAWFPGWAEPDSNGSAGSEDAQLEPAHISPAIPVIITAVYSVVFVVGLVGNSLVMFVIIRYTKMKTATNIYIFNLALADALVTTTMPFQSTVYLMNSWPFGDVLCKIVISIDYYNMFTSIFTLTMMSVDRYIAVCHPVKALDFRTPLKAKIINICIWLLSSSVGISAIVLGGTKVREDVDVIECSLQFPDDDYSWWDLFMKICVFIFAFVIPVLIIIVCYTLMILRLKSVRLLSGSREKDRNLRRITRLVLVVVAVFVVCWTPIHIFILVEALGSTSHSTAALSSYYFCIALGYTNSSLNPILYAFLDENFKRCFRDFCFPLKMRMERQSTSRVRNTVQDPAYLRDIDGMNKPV

[18] = biological target: Mu-type opioid receptor (Homo sapiens) (UniProt P35372); experiment: Inhibition of mu opioid receptor at 1 uM
Chain of Mu-type opioid receptor (Homo sapiens) (P35372 whole entry): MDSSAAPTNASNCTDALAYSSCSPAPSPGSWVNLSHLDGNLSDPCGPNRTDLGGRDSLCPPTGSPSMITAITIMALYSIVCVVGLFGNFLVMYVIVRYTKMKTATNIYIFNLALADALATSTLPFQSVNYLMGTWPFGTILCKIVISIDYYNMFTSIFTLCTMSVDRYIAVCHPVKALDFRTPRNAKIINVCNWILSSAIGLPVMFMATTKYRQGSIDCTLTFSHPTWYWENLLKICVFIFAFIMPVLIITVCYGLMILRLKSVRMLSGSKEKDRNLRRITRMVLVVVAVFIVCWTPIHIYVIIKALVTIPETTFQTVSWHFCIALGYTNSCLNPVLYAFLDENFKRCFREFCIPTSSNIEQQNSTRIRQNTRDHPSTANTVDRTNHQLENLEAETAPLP

[19] = biological target: Platelet-activating factor receptor (Homo sapiens) (UniProt P25105); experiment: Inhibition of platelet activating factor receptor at 1 uM
Chain of Platelet-activating factor receptor (Homo sapiens) (P25105 whole entry): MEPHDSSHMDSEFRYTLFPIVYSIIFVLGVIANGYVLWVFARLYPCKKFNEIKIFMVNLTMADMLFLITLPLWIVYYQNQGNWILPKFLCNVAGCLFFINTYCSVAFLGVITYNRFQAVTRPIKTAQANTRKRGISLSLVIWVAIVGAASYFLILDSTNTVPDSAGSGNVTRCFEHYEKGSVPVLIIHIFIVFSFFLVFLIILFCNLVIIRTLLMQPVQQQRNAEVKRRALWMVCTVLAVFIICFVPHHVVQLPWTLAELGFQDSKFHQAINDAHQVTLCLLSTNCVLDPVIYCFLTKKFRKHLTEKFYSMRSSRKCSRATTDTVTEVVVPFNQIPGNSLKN

[20] = species on record: Homo sapiens; experiment: Inhibition of N-type calcium channel at 1 uM
[21] = Permeability from apical to basolateral side of the Caco-2 cell membrane at 1 uM in presence of calcium; format: ADME, cell-based; conditions: human
[22] = Intrinsic clearance in rat microsomes; format: ADME, Microsome
[23] = Intrinsic clearance in human microsomes; format: ADME, Microsome
[24] = test system: CYP2C9; experiment: Metabolic stability in human liver microsome at 0.5 uM in presence of 5 uM CYP2C9 inhibitor sulfaphenazole; format: ADME; conditions: liver microsomes, with 5 uM sulfaphenazole (CYP2C9 inhibitor)
[25] = test system: CYP2C19; experiment: Metabolic stability in human liver microsome at 0.5 uM in presence of 200 uM CYP2C19 inhibitor (S)-mephenytoin; format: ADME; conditions: liver microsomes, with 200 uM (S)-mephenytoin (CYP2C19 inhibitor)
[26] = test system: Plasma; experiment: Percentage unbound ligand in rat blood at 1 uM; format: ADME, cell-free
[27] = test system: Plasma; experiment: Percentage unbound ligand in dog blood at 0.2 uM; format: ADME, cell-free, Canis lupus familiaris
[28] = test system: Plasma; experiment: Percentage unbound ligand in monkey blood at 0.2 uM; format: ADME, cell-free, Macaca mulatta; conditions: rhesus monkey
[29] = Ratio of drug level in blood to plasma in rat; format: ADME, cell-free; conditions: blood and plasma, read-out: BPR
[30] = Ratio of drug level in blood to plasma in dog; format: ADME, cell-free, Canis lupus familiaris; conditions: blood and plasma, read-out: BPR
[31] = Plasma clearance in Beagle dog at 0.5 mg/kg, iv; format: ADME, organism-based, Canis lupus familiaris; set-up: dose 0.5 mg/kg, route intravenous
[32] = Volume of distribution at steady state in rat at 1 mg/kg, iv; format: ADME, organism-based; set-up: dose 1 mg/kg, route intravenous; conditions: in vivo, read-out: Vdss
[33] = Volume of distribution at steady state in monkey at 0.5 mg/kg, iv; format: ADME, organism-based, Macaca mulatta; set-up: dose 0.5 mg/kg, route intravenous; conditions: rhesus monkey, in vivo, read-out: Vdss
[34] = Half life in rat at 5 mg/kg, iv; format: ADME, organism-based; set-up: dose 5 mg/kg, route intravenous; conditions: in vivo
[35] = Half life in Beagle dog at 1 mg/kg, iv; format: ADME, organism-based, Canis lupus familiaris; set-up: dose 1 mg/kg, route intravenous; conditions: in vivo
[36] = AUC (0 to t) in Beagle dog at 0.5 mg/kg, iv; format: ADME, organism-based, Canis lupus familiaris; set-up: dose 0.5 mg/kg, route intravenous; conditions: plasma
[37] = AUC (0 to t) in Beagle dog at 1 mg/kg, iv; format: ADME, organism-based, Canis lupus familiaris; set-up: dose 1 mg/kg, route intravenous; conditions: plasma
[38] = AUC (0 to t) in monkey at 0.5 mg/kg, iv; format: ADME, organism-based, Macaca mulatta; set-up: dose 0.5 mg/kg, route intravenous; conditions: rhesus monkey, plasma
[39] = AUC (0 to infinity) in rat at 0.3 mg/kg, iv; format: ADME, organism-based; set-up: time infinity, dose 0.3 mg/kg, route intravenous; conditions: plasma
[40] = AUC (0 to infinity) in rat at 5 mg/kg, iv; format: ADME, organism-based; set-up: time infinity, dose 5 mg/kg, route intravenous; conditions: plasma
[41] = AUC (0 to infinity) in portal cannulated Beagle dog at 1 mg/kg, iv; format: ADME, organism-based, Canis lupus familiaris; set-up: time infinity, dose 1 mg/kg, route intravenous; conditions: plasma
[42] = AUC (0 to infinity) in monkey at 0.5 mg/kg, iv; format: ADME, organism-based, Macaca mulatta; set-up: time infinity, dose 0.5 mg/kg, route intravenous; conditions: rhesus monkey, plasma
[43] = Half life in rat at 30 mg/kg, po; format: ADME, organism-based; set-up: dose 30 mg/kg, route oral; conditions: in vivo
[44] = Half life in portal cannulated Beagle dog at 1 mg/kg, po; format: ADME, organism-based, Canis lupus familiaris; set-up: dose 1 mg/kg, route oral; conditions: in vivo
[45] = Half life in Beagle dog at 0.5 mg/kg, po; format: ADME, organism-based, Canis lupus familiaris; set-up: dose 0.5 mg/kg, route oral; conditions: in vivo
[46] = AUC (0 to infinity) in male rat at 30 mg/kg, po; format: ADME, organism-based; set-up: time infinity, dose 30 mg/kg, route oral; conditions: plasma
[47] = AUC (0 to infinity) in Beagle dog at 0.5 mg/kg, po; format: ADME, organism-based, Canis lupus familiaris; set-up: time infinity, dose 0.5 mg/kg, route oral; conditions: plasma
[48] = AUC (0 to infinity) in Beagle dog at 5 mg/kg, po; format: ADME, organism-based, Canis lupus familiaris; set-up: time infinity, dose 5 mg/kg, route oral; conditions: plasma
[49] = Cmax in rat at 3 mg/kg, po; format: ADME, organism-based; set-up: dose 3 mg/kg, route oral; conditions: in vivo
[50] = Cmax in rat at 300 mg/kg, po; format: ADME, organism-based; set-up: dose 300 mg/kg, route oral; conditions: in vivo
[51] = Cmax in portal cannulated Beagle dog at 1 mg/kg, po; format: ADME, organism-based, Canis lupus familiaris; set-up: dose 1 mg/kg, route oral; conditions: in vivo
[52] = Tmax in rat at 3 mg/kg, po; format: ADME, organism-based; set-up: dose 3 mg/kg, route oral; conditions: in vivo
[53] = Tmax in rat at 30 mg/kg, po; format: ADME, organism-based; set-up: dose 30 mg/kg, route oral; conditions: in vivo
[54] = Tmax in portal cannulated Beagle dog at 1 mg/kg, po; format: ADME, organism-based, Canis lupus familiaris; set-up: dose 1 mg/kg, route oral; conditions: in vivo
[55] = Bioavailability in rat at 3 mg/kg, po; format: ADME, organism-based; conditions: in vivo
[56] = Bioavailability in rat at 30 mg/kg, po; format: ADME, organism-based; conditions: in vivo
[57] = Bioavailability in rat at 300 mg/kg, po; format: ADME, organism-based; conditions: in vivo
[58] = Bioavailability in portal cannulated Beagle dog at 1 mg/kg, po; format: ADME, organism-based, Canis lupus familiaris; conditions: in vivo
[59] = Bioavailability in Beagle dog at 0.5 mg/kg, po; format: ADME, organism-based, Canis lupus familiaris; conditions: in vivo
[60] = test system: Canis familiaris; experiment: Decrease in cholesterol level in obese Beagle dog at 0.39 mg/kg, po after 3 months; format: functional, Canis lupus familiaris; set-up: scale not given: the % may be the effect or the level left
[61] = test system: Canis familiaris; experiment: Increase in fecal fat in obese Beagle dog at 0.39 mg/kg, po after 3 months; format: functional, Canis lupus familiaris, Feces
[62] = Permeability from basolateral to apical side of the Caco-2 cell membrane at 1 uM in presence of calcium; format: ADME, cell-based; conditions: human
[63] = Permeability from basolateral to apical side of the Caco-2 cell membrane at 10 uM in presence of calcium; format: ADME, cell-based; conditions: human

With `CN(Cc1ccccc1)C(=O)[C@@H](NC(=O)c1cc2cc(NC(=O)c3ccccc3-c3ccc(C(F)(F)F)cc3)ccc2n1C)c1ccccc1` [DIRLOTAPIDE] the Activity [1] was “inactive”, the Activity [2] was “inactive” and the Activity [3] was “inactive”. For the same compound, the Activity [4] was “inactive”, the Activity [5] was “inactive” and the Activity [6] was “inactive”. The Activity [7] was “inactive”, the Activity [8] was “inactive” and the Activity [9] was “inactive”. For the same compound, the Activity [10] was “inactive”, the Activity [11] was “inactive” and the Activity [12] was “inactive”. For the same compound, the Activity [13] was “inactive”, the Activity [14] was “inactive” and the Activity [15] was “inactive”. The Activity [16] was “inactive”, the Activity [17] was “inactive” and the Activity [18] was “inactive”. The Activity [19] was “inactive”, the Activity [20] was “inactive” and the Papp A→B at 1 µM [21] was 0.6 ×10⁻⁶ cm/s. It also gave a CLint scaled [22] of 645 mL/min/kg, a CLint scaled [23] of 91 mL/min/kg and a half-life at 0.5 µM [24] of 0.783 h. For the same compound, the half-life at 0.5 µM [25] was 1.17 h, the Fu [26] was 0.032% and the Fu [27] was 0.0088%. For the same compound, the Fu [28] was 0.026%, the blood plasma ratio [29] was 0.64 and the blood plasma ratio [30] was 0.54. The clearance [31] was 5.5 mL/min/kg, the Vd [32] was 8 L/kg and the Vd [33] was 2.2 L/kg. The half-life [34] was 11.3 h, the half-life [35] was 14 h and the AUC(0-t) [36] was 1490 ng·h/mL. It also gave an AUC(0-t) [37] of 3260 ng·h/mL, an AUC(0-t) [38] of 684 ng·h/mL and an AUC(0-inf) [39] of 55 ng·h/mL. It also gave an AUC(0-inf) [40] of 5890 ng·h/mL, an AUC(0-inf) [41] of 2820 ng·h/mL and an AUC(0-inf) [42] of 703 ng·h/mL. The half-life [43] was 6.3 h, the half-life [44] was 6.8 h and the half-life [45] was 14.1 h. The AUC(0-inf) [46] was 379 ng·h/mL, the AUC(0-inf) [47] was 663 ng·h/mL and the AUC(0-inf) [48] was 1930 ng·h/mL. It also gave a Cmax [49] of 4.7 ng/mL, a Cmax [50] of 27 ng/mL and a Cmax [51] of 26.8 ng/mL. It also gave a Tmax [52] of 2.1 h, a Tmax [53] of 2.8 h and a Tmax [54] of 6.3 h. For the same compound, the bioavailability [55] was 2.6%, the bioavailability [56] was 2.3% and the bioavailability [57] was 1%. For the same compound, the bioavailability [58] was 10.6%, the bioavailability [59] was 43% and the Activity [60] was 51%. The Activity [61] was 1.86%, the Papp B→A at 1 µM [62] was 0.4 ×10⁻⁶ cm/s and the Papp B→A at 10 µM [63] was 0.3 ×10⁻⁶ cm/s.
